{
  "source": "paper PMC9683047",
  "about": "“Design, synthesis and biological evaluation of 4-aminoquinoline derivatives as receptor-interacting protein kinase 2 (RIPK2) inhibitors” (Journal of Enzyme Inhibition and Medicinal Chemistry, 2022)",
  "key": {"JAK1(h)": {"target": "T1, JAK1(h) (Homo sapiens, UniProt P23458)", "T1 construct": "purchased Eurofins (Millipore) KinaseProfiler Diversity Panel", "T1 sequence (P23458 whole entry)": "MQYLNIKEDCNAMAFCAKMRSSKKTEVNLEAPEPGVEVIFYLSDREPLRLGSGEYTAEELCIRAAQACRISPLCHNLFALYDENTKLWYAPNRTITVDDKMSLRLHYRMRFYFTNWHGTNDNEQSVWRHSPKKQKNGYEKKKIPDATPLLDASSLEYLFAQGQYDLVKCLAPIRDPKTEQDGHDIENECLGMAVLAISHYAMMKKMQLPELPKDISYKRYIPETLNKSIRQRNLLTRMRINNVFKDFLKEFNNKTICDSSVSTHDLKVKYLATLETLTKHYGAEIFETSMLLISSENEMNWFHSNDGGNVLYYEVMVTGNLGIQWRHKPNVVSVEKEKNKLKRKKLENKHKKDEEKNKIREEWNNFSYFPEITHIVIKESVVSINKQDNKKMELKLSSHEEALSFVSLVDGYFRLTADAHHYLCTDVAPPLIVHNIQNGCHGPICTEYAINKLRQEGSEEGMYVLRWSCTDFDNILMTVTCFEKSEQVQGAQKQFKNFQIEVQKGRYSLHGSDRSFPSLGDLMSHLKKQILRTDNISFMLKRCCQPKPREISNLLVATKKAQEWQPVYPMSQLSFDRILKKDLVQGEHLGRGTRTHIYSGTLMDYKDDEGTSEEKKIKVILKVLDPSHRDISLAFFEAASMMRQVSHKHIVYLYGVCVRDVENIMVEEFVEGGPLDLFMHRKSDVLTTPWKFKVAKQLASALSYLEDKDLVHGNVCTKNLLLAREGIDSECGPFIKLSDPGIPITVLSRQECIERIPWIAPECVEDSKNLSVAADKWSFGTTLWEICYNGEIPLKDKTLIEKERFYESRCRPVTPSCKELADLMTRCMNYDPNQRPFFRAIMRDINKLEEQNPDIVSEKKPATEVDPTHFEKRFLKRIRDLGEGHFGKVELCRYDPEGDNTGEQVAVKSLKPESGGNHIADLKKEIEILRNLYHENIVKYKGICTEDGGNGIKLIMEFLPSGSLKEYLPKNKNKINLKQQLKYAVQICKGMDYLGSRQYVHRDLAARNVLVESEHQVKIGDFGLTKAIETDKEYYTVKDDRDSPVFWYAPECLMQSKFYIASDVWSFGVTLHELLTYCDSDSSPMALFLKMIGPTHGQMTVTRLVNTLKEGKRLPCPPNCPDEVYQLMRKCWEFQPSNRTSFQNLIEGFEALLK", "assay": "Kinase selectivity panel: JAK1", "format": "biochemical", "method": "(§1) To confirm the anti-inflammatory effect was caused by RIPK2 inhibition, compound 14 was subjected to kinase selectivity evaluation (Figure 4). Kinase selectivity profile of compound 14 as shown by the diversity kinase Panel screen against 70 kinases assayed at 1 µM. Among all tested 70 kinases, only five were inhibited over 90% at 1 µM including Fyn, Lyn, BTK, Abl and RIPK2. Three kinases including KDR, CDK9 and LOK were inhibited 50–90% at 1 µM."}, "Abl(h)": {"target": "T2, Abl(h) (Homo sapiens, UniProt P00519)", "T2 construct": "purchased Eurofins (Millipore) KinaseProfiler Diversity Panel", "T2 sequence (P00519 whole entry)": "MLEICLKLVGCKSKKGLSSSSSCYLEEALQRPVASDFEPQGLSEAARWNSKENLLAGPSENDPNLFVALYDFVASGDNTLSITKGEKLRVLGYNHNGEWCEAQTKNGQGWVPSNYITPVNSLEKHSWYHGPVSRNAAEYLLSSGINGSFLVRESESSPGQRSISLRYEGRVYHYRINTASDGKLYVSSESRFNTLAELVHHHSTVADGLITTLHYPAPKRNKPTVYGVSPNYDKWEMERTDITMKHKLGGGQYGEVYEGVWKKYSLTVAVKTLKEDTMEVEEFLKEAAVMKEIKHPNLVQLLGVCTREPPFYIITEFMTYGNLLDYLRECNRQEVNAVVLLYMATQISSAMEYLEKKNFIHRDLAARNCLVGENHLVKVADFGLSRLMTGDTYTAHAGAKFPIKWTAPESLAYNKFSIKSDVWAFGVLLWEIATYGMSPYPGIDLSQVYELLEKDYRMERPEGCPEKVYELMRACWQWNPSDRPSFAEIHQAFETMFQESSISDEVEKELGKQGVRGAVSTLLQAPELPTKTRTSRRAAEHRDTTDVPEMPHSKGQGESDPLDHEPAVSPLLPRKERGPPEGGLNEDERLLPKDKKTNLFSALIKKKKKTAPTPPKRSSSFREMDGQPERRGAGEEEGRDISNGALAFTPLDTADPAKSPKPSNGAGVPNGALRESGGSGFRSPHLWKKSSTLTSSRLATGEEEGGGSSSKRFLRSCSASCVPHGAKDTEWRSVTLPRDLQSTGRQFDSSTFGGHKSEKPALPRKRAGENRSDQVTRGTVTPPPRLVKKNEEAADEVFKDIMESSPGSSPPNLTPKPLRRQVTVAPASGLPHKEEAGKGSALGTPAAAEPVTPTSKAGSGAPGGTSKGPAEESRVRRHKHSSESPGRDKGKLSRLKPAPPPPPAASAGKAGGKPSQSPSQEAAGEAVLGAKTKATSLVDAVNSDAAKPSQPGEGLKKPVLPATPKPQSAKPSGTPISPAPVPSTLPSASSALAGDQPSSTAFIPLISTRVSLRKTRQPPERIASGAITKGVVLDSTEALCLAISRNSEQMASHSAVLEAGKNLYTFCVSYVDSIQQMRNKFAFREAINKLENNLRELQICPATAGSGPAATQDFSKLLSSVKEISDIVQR", "assay": "Kinase selectivity panel: Abl", "format": "biochemical", "method": "as §1"}, "IGF-1R(h)": {"target": "T3, IGF-1R(h) (Homo sapiens, UniProt P08069)", "T3 construct": "purchased Eurofins (Millipore) KinaseProfiler Diversity Panel", "T3 sequence (P08069 31-1367)": "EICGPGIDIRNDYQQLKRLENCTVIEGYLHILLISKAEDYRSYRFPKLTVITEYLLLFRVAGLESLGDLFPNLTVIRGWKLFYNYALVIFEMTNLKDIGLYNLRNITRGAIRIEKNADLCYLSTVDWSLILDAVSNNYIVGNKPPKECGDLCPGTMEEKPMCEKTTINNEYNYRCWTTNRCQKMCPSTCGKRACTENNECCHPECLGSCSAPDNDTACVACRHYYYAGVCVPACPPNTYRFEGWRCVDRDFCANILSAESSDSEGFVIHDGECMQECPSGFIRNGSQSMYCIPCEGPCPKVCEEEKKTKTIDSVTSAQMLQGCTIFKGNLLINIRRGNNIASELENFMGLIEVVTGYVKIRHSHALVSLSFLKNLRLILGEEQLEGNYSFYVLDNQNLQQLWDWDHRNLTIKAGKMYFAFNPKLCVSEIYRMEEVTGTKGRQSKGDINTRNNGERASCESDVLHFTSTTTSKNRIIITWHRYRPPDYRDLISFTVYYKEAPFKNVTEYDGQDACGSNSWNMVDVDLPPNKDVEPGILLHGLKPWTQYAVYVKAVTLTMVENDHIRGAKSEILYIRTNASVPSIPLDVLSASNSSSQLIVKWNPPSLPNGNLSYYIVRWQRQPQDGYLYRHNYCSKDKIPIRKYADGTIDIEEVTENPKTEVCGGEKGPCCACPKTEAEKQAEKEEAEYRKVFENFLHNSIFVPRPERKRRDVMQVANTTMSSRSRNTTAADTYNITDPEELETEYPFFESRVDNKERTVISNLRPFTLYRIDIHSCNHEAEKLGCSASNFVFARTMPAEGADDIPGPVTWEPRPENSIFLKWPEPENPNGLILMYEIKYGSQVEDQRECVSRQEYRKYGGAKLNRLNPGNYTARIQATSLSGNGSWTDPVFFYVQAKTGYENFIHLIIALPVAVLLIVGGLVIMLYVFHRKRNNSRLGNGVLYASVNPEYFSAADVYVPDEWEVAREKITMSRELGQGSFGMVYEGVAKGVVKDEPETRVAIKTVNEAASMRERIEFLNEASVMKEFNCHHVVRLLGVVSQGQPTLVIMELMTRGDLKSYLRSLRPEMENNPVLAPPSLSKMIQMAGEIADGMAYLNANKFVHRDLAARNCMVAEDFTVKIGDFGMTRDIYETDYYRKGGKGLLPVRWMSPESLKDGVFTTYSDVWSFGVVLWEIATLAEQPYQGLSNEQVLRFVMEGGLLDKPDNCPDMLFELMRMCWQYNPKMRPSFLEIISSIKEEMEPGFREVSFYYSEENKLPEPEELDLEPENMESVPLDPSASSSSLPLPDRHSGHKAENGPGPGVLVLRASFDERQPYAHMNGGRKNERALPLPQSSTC", "assay": "Kinase selectivity panel: IGF-1R", "format": "biochemical", "settings": "1 µM", "method": "as §1"}, "[1]": {"assay": "Human liver microsome stability", "format": "in vitro ADME", "settings": "human liver microsomes"}, "RIPK1": {"target": "T4, RIPK1 (Homo sapiens, UniProt Q13546)", "T4 sequence (Q13546 1-671)": "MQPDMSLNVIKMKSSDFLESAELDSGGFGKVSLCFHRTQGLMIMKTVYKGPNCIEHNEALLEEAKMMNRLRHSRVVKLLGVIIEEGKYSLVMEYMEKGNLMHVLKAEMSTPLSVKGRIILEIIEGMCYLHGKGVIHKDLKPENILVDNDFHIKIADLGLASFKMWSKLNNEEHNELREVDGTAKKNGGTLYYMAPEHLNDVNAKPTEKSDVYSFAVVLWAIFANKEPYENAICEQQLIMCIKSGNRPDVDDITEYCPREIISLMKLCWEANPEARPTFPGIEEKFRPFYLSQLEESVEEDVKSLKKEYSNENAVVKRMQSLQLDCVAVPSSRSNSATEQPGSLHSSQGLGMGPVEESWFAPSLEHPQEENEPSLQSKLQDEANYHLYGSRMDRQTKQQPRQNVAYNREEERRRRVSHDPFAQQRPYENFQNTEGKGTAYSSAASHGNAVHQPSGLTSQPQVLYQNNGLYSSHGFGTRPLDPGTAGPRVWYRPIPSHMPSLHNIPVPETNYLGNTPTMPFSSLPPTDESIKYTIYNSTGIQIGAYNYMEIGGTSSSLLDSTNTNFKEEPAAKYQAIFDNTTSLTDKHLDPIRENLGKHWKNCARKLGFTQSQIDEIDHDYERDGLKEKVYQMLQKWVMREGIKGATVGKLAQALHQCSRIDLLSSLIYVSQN", "assay": "RIPK1 inhibition rate at 1 µM", "format": "biochemical", "method": "Table 4. Selectivity, ClogP and LipE of compound 14, 15, 21, 32, 36. | column: RIPK1 IR@1µM (%)"}, "[2]": {"tested_on": "MDP-induced TNF-α secretion in Raw264.7", "assay": "TNF-α secretion in MDP-induced Raw264.7 (ELISA)", "format": "cell-based, mouse", "settings": "Raw264.7, compounds 1 h then L18-MDP 20 µg/mL 24 h, series concentration", "method": "Raw 264.7 was cultured in DMEM containing 10% (w/v) foetal bovine serum (FBS). Cell were seeded at a density of 1 × 10^5 cells/well in a 48 well plate overnight, then cells were treated with different concentrations of compounds for1h, following by stimulated with L18-MDP (20 µg/mL, Invivogen) for 24 h. The Cell supernatants were harvested for enzyme-linked immunosorbent assay (ELISA).\nTNFα commercial ELISA kits (DAKEWE) were used to detect TNFα in cell culture supernatants according to the manufacturer’s instructions. The concentration of cytokines was determined using multiwell spectrophotometer (SpetraMAX PLUS, Molecular Devices)."}, "LOK(h)": {"target": "T5, LOK(h) (Homo sapiens, UniProt O94804)", "T5 construct": "purchased Eurofins (Millipore) KinaseProfiler Diversity Panel", "T5 sequence (O94804 whole entry)": "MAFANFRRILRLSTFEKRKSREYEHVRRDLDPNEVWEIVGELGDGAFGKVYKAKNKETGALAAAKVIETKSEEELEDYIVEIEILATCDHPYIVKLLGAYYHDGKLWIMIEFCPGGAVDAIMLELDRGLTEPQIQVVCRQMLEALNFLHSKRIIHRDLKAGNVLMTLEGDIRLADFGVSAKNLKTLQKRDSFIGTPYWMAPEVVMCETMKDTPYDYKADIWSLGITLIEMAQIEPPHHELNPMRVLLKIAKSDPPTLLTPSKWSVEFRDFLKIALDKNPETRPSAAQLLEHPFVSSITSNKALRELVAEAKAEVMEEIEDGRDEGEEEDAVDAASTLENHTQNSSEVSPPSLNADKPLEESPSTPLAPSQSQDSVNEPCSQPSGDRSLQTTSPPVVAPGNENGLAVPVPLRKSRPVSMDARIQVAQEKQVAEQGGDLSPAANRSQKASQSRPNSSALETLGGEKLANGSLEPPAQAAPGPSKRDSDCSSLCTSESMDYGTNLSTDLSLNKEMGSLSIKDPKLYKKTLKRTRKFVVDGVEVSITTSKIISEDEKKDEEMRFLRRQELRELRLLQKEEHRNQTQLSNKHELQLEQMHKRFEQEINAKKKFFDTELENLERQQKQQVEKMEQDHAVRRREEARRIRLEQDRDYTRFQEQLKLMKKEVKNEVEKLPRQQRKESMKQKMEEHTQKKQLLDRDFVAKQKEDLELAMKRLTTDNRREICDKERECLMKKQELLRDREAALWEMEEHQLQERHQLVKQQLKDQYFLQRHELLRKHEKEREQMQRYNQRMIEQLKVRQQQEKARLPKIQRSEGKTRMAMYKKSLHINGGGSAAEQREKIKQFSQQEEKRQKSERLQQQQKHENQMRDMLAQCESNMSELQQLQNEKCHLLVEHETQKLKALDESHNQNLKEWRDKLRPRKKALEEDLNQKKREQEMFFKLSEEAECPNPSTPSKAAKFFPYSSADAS", "assay": "Kinase selectivity panel: LOK", "format": "biochemical", "method": "as §1"}},
  "data": [
    {"smiles": "c1cc(-c2ccc3nccc(Nc4ccc5scnc5c4)c3c2)ccn1", "note": "[Compound 14, N-(6-(pyridin-4-yl)quinolin-4-yl)benzo[d]thiazol-5-amine]", "values": [
      {"measurement": "JAK1 remaining kinase activity with compound 14 at 1 µM (% of control)", "setting": "JAK1(h)", "result": 105},
      {"measurement": "Abl remaining activity (% of control)", "setting": "Abl(h); 1 µM", "result": 9},
      {"measurement": "inhibition at 1 µM", "setting": "Abl(h); at 1 µM", "result": "> 90", "unit": "%"},
      {"measurement": "remaining IGF-1R activity (% of control)", "setting": "IGF-1R(h)", "result": 109},
      {"measurement": "CL", "setting": "[1]", "result": 9.64, "unit": "mL/min/kg"},
      {"measurement": "half-life", "setting": "[1]", "result": 1.6, "unit": "h"},
      {"measurement": "RIPK1 IR@1µM (%)", "setting": "RIPK1", "result": "<1", "unit": "%"},
      {"measurement": "inhibition of MDP-induced TNF-α secretion", "setting": "[2]", "result": "strong inhibitory activity on MDP-induced TNF-α secretion with a dose-dependent manner"},
      {"measurement": "LOK remaining activity (% of control)", "setting": "LOK(h); 1 µM", "result": 44},
      {"measurement": "inhibition at 1 µM", "setting": "LOK(h); at 1 µM", "result": "50 to 90", "unit": "%"}
    ]}
  ]
}
